Series [1] in a line: Analytical RP-HPLC retention time. In kind it is physicochemical. The conditions noted are these: C18 4.6 mm × 250 mm, 0.05% aq. TFA (A) / 0.05% TFA in CH3CN (B), 5% to 95% B in 30 min, 1.0 mL/min, 25 °C, 280 nm, method A of the Supplementary Material. The procedure: As described previously, all reactions were performed under argon atmosphere in flame-dried glassware using dry solvents unless otherwise noted. Anhydrous organic solvents of purity greater than 99.9% were purchased from Aldrich and used directly in the reaction. All reagents and some of the starting materials were purchased from commercial chemical suppliers, including Sigma-Aldrich, TCI, and Across Organics and used as received. Analytical thin-layer chromatography (TLC) was performed on Merck aluminum sheets with silica gel 60 F254 using 0.25 mm plates, and was visualized by ultraviolet light, staining with KMnO4 and ninhydrin. Column chromatography purification was performed on Merck silica gel 60 (70–230 mesh or 230–400 mesh). Bruker DRX-400 and DRX-500 NMR spectrometer were used for recording ^1H and ^13C NMR spectra. NMR chemical shifts (δ) are denoted in parts per million (ppm), and coupling constants (J) are given in hertz (Hz). MALDI-TOF mass was recorded using Shimadzu mass spectrometer. The crude peptidomimetics and peptides were purified by reverse-phase high-performance liquid chromatography (RP-HPLC) on Agilent HPLC system equipped with a C18 semi-preparative column (250 mm × 22 mm, 10 μm) using 0.05% aq. trifluoroacetic acid (TFA) (eluent A) and 0.05% TFA in CH3CN (eluent B) were used with a flow rate of 5.0 mL/min at 25 °C, under wavelength 280 nm. Moreover, the purity of the peptide judged to be ≥ 95% pure by analytical HPLC equipped with a C18 column (4.6 mm× 250 mm, 10 μm). Two different linear gradients of 0.05% aq. TFA (eluent A) and 0.05% TFA in CH3CN (eluent B) (gradient method, 5% of eluent B to 95% of Eluent B in 30 min; injection volume, 10 µL; concentration 10 µmol) were used with a flow rate of 1.0 mL/min at 25 °C, under wavelength 280 nm.

For series [2], the system named is Staphylococcus aureus (KCTC 1621). The method, then: (§1) The bacterial cells were grown overnight for 18 h at 37 °C in 10 mL of Mueller Hinton broth (MHB). The 10 μL of this culture was inoculated into 10 mL of fresh MHB and incubated for an additional 3 h at 37 °C to obtain mid-logarithmic phase organisms. Aliquots (100 μL) of bacterial cell suspension at 4 × 10^6 CFU/mL in 1% peptone were added to 100 μL of the sample solutions (serial 2-fold dilutions in 1% peptone). […] The MIC values were determined after 18 h of incubation.

Series [3] relates to E. coli (KCTC 1682). The method, then:
as §1

Series [4] deals with Staphylococcus epidermidis (KCTC 1917). The method, then:
as §1

The subject of series [5] is P. aeruginosa (KCTC 1637). The procedure: as §1
Series [6] deals with trypsin (read-out E. coli KCTC 1682). The series is classed as in vitro ADME. The method, then: (§2) Digestion of the BJK-4 and melittin by trypsin was carried out using 100 μg/mL peptide and 0.4 μg/mL trypsin in PBS, at 37 °C for 2 h. The reaction solution (50 μL) was added to 150 μL of a bacterial suspension (2 × 10^6 CFU/mL in Mueller-Hinton broth). After incubation at 37 °C for 18 h, the bacterial growth inhibition was determined by measuring absorbance at 600 nm with a microplate ELISA reader (Bio-Tek; EL 800).

In series [7] the test system is trypsin (read-out S. aureus KCTC 1621). In kind it is in vitro ADME. The procedure: as §2
Setting [8] is: Gram-positive, serial 2-fold dilutions in 1% peptone, 1 to […], 18 h incubation, lowest concentration causing 100% inhibition of growth (no visible turbidity).
Where [9] appears, read: Gram-negative, serial 2-fold dilutions in 1% peptone, 1 to […], 18 h incubation, lowest concentration causing 100% inhibition of growth (no visible turbidity).

Structures are written as SMILES. ≈ marks a conversion by molar mass, not a printed value. Where two headings read alike, the source gives them in different places. Peptide text beside a SMILES is read from it.

This note sets out measurements from paper PMC7279249, “Synthesis of Fmoc-Triazine Amino Acids and Its Application in the Synthesis of Short Antibacterial Peptidomimetics” (International Journal of Molecular Sciences, 2020).

Turning to `CC(=O)NCCNc1nc(NCC(N)=O)nc(N(CCCN)CCCN)n1` [BJK-1], the “Rt, HPLC retention time” value in series [1] is 8.8 min. The “MIC, Staphylococcus aureus (KCTC 1621)” value in series [2] (KCTC 1621, 18 h) is more than 128 µg/mL. The “MIC, E. coli (KCTC 1682)” value in series [3] (KCTC 1682, 18 h) amounted to 128 µg/mL (≈ 335 µM). In addition, the “MIC, Staphylococcus epidermidis (KCTC 1917)” value (“MIC … (KCTC 1917)” for short) in series [4] (KCTC 1917, 18 h) was more than 128 µg/mL. Further, the “MIC, P. aeruginosa (KCTC 1637)” value in series [5] (KCTC 1637, 18 h) came to 128 µg/mL (≈ 335 µM).
With `CC(=O)NCCNc1nc(NCC(N)=O)nc(N(Cc2ccccc2)Cc2ccccc2)n1` [BJK-2], the “Rt, HPLC retention time” value in series [1] is 21.8 min. For the same compound, the “MIC, Staphylococcus aureus (KCTC 1621)” value in series [2] (KCTC 1621, 18 h) is more than 128 µg/mL. The “MIC, E. coli (KCTC 1682)” value in series [3] (KCTC 1682, 18 h) was more than 128 µg/mL. Besides, the “MIC … (KCTC 1917)” value in series [4] (KCTC 1917, 18 h) was more than 128 µg/mL. Further, the “MIC, P. aeruginosa (KCTC 1637)” value in series [5] (KCTC 1637, 18 h) is more than 128 µg/mL.
Regarding `CC(=O)NCCNc1nc(NCC(=O)NCCNc2nc(NCC(N)=O)nc(N(Cc3ccccc3)Cc3ccccc3)n2)nc(N(CCCN)CCCN)n1` [BJK-3], in series [2] (KCTC 1621, 18 h), the “MIC, Staphylococcus aureus (KCTC 1621)” value worked out at 32 µg/mL (≈ 41.5 µM). The “MIC, E. coli (KCTC 1682)” value in series [3] (KCTC 1682, 18 h) is 64 µg/mL (≈ 82.9 µM). For the same compound, the “MIC … (KCTC 1917)” value in series [4] (KCTC 1917, 18 h) stood at 32 µg/mL (≈ 41.5 µM). Moreover, the “MIC, P. aeruginosa (KCTC 1637)” value in series [5] (KCTC 1637, 18 h) was 32 µg/mL (≈ 41.5 µM).
Regarding `CC(=O)NCCNc1nc(NCC(=O)NCCNc2nc(NCC(=O)NCCNc3nc(NCC(N)=O)nc(N(CCCN)CCCN)n3)nc(N(Cc3ccccc3)Cc3ccccc3)n2)nc(N(CCCN)CCCN)n1` [BJK-4], in series [6], the “Antimicrobial activity against E. coli after trypsin treatment” value is on record as “nearly preserved”. In addition, the “Antimicrobial activity against S. aureus after trypsin treatment” value in series [7] was “nearly preserved”. Moreover, the “MIC, Staphylococcus aureus (KCTC 1621)” value in series [2] (KCTC 1621, 18 h) is 16 µg/mL (≈ 14.6 µM). The “MIC, E. coli (KCTC 1682)” value in series [3] (KCTC 1682, 18 h) amounted to 16 µg/mL (≈ 14.6 µM). Besides, in series [4] (KCTC 1917, 18 h), the “MIC … (KCTC 1917)” value was found to be 16 µg/mL (≈ 14.6 µM). Also, the “MIC, P. aeruginosa (KCTC 1637)” value in series [5] (KCTC 1637, 18 h) stood at 16 µg/mL (≈ 14.6 µM).
Consider `CC(=O)NCCNc1nc(NCC(=O)NCCNc2nc(NCC(=O)NCCNc3nc(NCC(N)=O)nc(N(Cc4ccccc4)Cc4ccccc4)n3)nc(N(CCCN)CCCN)n2)nc(N(Cc2ccccc2)Cc2ccccc2)n1` [BJK-5], for which the “Rt, HPLC retention time” value in series [1] was found to be 21.1 min. Moreover, the “MIC, Staphylococcus aureus (KCTC 1621)” value in series [2] (KCTC 1621, 18 h) was 64 µg/mL (≈ 55.1 µM). For the same compound, in series [3] (KCTC 1682, 18 h), the “MIC, E. coli (KCTC 1682)” value was determined as 128 µg/mL (≈ 110 µM). For the same compound, the “MIC … (KCTC 1917)” value in series [4] (KCTC 1917, 18 h) turned out to be 64 µg/mL (≈ 55.1 µM). The “MIC, P. aeruginosa (KCTC 1637)” value in series [5] (KCTC 1637, 18 h) was 32 µg/mL (≈ 27.6 µM).
On to `CC(=O)NCCNc1nc(NCC(=O)NCCNc2nc(NCC(=O)NCCNc3nc(NCC(=O)NCCNc4nc(NCC(N)=O)nc(N(Cc5ccccc5)Cc5ccccc5)n4)nc(N(CCCN)CCCN)n3)nc(N(Cc3ccccc3)Cc3ccccc3)n2)nc(N(CCCN)CCCN)n1` [BJK-6], for which, in series [2] (setting [8]), the “MIC, Staphylococcus aureus (KCTC 1621)” value came to 16 µg/mL (≈ 10.8 µM). The “MIC, E. coli (KCTC 1682)” value in series [3] (setting [9]) turned out to be 16 µg/mL (≈ 10.8 µM). The “MIC … (KCTC 1917)” value in series [4] (setting [8]) was 16 µg/mL (≈ 10.8 µM). In series [5] (setting [9]), the “MIC, P. aeruginosa (KCTC 1637)” value was 16 µg/mL (≈ 10.8 µM).
As to `CC(=O)N[C@@H](CCCCN)C(=O)N[C@@H](Cc1c[nH]c2ccccc12)C(N)=O` [BJK-7] (Ac-Lys-Trp-NH2), the “Rt, HPLC retention time” value in series [1] was found to be 15.4 min. In series [2] (KCTC 1621, 18 h), the “MIC, Staphylococcus aureus (KCTC 1621)” value was more than 128 µg/mL. Also, in series [3] (KCTC 1682, 18 h), the “MIC, E. coli (KCTC 1682)” value was determined as 128 µg/mL (≈ 343 µM). Further, in series [4] (KCTC 1917, 18 h), the “MIC … (KCTC 1917)” value was more than 128 µg/mL. In series [5] (KCTC 1637, 18 h), the “MIC, P. aeruginosa (KCTC 1637)” value was 128 µg/mL (≈ 343 µM).
For `CC(=O)N[C@@H](CCCCN)C(=O)N[C@@H](Cc1c[nH]c2ccccc12)C(=O)N[C@@H](CCCCN)C(N)=O` [BJK-8] (Ac-Lys-Trp-Lys-NH2), the “Rt, HPLC retention time” value in series [1] is 14.2 min. Moreover, in series [2] (KCTC 1621, 18 h), the “MIC, Staphylococcus aureus (KCTC 1621)” value was more than 128 µg/mL. Besides, in series [3] (KCTC 1682, 18 h), the “MIC, E. coli (KCTC 1682)” value worked out at 64 µg/mL (≈ 128 µM). For the same compound, in series [4] (KCTC 1917, 18 h), the “MIC … (KCTC 1917)” value is more than 128 µg/mL. Further, the “MIC, P. aeruginosa (KCTC 1637)” value in series [5] (KCTC 1637, 18 h) amounted to 128 µg/mL (≈ 255 µM).
Regarding `CC(=O)N[C@@H](Cc1c[nH]c2ccccc12)C(=O)N[C@@H](CCCCN)C(=O)N[C@@H](Cc1c[nH]c2ccccc12)C(N)=O` [BJK-9] (Ac-Trp-Lys-Trp-NH2), the “Rt, HPLC retention time” value in series [1] stood at 19.6 min. For the same compound, the “MIC, Staphylococcus aureus (KCTC 1621)” value in series [2] (KCTC 1621, 18 h) was more than 128 µg/mL. Besides, in series [3] (KCTC 1682, 18 h), the “MIC, E. coli (KCTC 1682)” value is more than 128 µg/mL. In addition, in series [4] (KCTC 1917, 18 h), the “MIC … (KCTC 1917)” value was more than 128 µg/mL. The “MIC, P. aeruginosa (KCTC 1637)” value in series [5] (KCTC 1637, 18 h) is more than 128 µg/mL.
Consider `CC(=O)N[C@@H](CCCCN)C(=O)N[C@@H](Cc1c[nH]c2ccccc12)C(=O)N[C@@H](CCCCN)C(=O)N[C@@H](Cc1c[nH]c2ccccc12)C(N)=O` [BJK-10] (Ac-KWKW-NH2), for which the “Rt, HPLC retention time” value in series [1] is on record as 17.9 min. Besides, in series [2] (setting [8]), the “MIC, Staphylococcus aureus (KCTC 1621)” value is more than 128 µg/mL. Besides, the “MIC, E. coli (KCTC 1682)” value in series [3] (setting [9]) is more than 128 µg/mL. In addition, the “MIC … (KCTC 1917)” value in series [4] (setting [8]) was more than 128 µg/mL. Besides, the “MIC, P. aeruginosa (KCTC 1637)” value in series [5] (setting [9]) was more than 128 µg/mL.
`CC[C@H](C)[C@H](NC(=O)CN)C(=O)NCC(=O)N[C@@H](C)C(=O)N[C@H](C(=O)N[C@@H](CC(C)C)C(=O)N[C@@H](CCCCN)C(=O)N[C@H](C(=O)N[C@@H](CC(C)C)C(=O)N[C@H](C(=O)N[C@H](C(=O)NCC(=O)N[C@@H](CC(C)C)C(=O)N1CCC[C@H]1C(=O)N[C@@H](C)C(=O)N[C@@H](CC(C)C)C(=O)N[C@H](C(=O)N[C@@H](CO)C(=O)N[C@@H](Cc1c[nH]c2ccccc12)C(=O)N[C@H](C(=O)N[C@@H](CCCCN)C(=O)N[C@@H](CCCNC(=N)N)C(=O)N[C@@H](CCCCN)C(=O)N[C@@H](CCCNC(=N)N)C(=O)N[C@@H](CCC(N)=O)C(=O)N[C@@H](CCC(N)=O)C(N)=O)[C@@H](C)CC)[C@@H](C)CC)[C@@H](C)O)[C@@H](C)O)C(C)C)C(C)C` [melittin, reference compound]: in series [6] (100 μg/mL peptide, 0.4 μg/mL trypsin in PBS, 37 °C, 2 h, then E. coli KCTC 1682 in Mueller-Hinton broth, 18 h at 37 °C, absorbance 600 nm), the “Antimicrobial activity against E. coli after trypsin treatment” value is on record as “completely abolished”. Further, the “Antimicrobial activity against S. aureus after trypsin treatment” value in series [7] (100 μg/mL peptide, 0.4 μg/mL trypsin in PBS, 37 °C, 2 h, then S. aureus KCTC 1621 in Mueller-Hinton broth, 18 h at 37 °C, absorbance 600 nm) is given as “completely abolished”.
